What was measured:
[1] = tested on: Cryptococcus neoformans ATCC 90113; test: Antimicrobial microdilution assay against Cryptococcus neoformans (modified CLSI/NCCLS, optical density); type: cell-based; settings: for X more potent than Amphotericin B: C. neoformans, ratio of molar IC50 to Amphotericin B; for C. neoformans IC50 / IC50: in vitro, C. neoformans ATCC 90113; for IC50: read-out: C. neoformans IC50 (mol/L)
Outline: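 Fungicidal endpoint taken by subculturing 5 μL from each clear well onto agar, MFC being the lowest concentration with no regrowth. Duplicate wells of serially diluted compound (20% DMSO/saline) in RPMI pH 6.0, read at 630 nm pre- and post-incubation, under modified CLSI methods. IC50 means 50% growth inhibition against controls.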

[2] = tested on: C. krusei ATCC 6258; test: Antifungal broth dilution assay against C. krusei (modified CLSI); type: cell-based, Candida krusei; settings: for X more potent than Amphotericin B: C. krusei, ratio of molar IC50 to amphotericin B; for C. krusei IC50 / IC50: in vitro; for IC50: read-out: C. krusei IC50 (mol/L)
Outline: (§1)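 Growth read by optical density at 530 nm, duplicate wells, 1% final DMSO. Staphylococcus spp.: Mueller-Hinton pH 7.3, 5.0×10^5 CFU/ml, 35 °C for 16-20 h; Candida spp.: RPMI/dextrose/glutamine/MOPS pH 6.0, 1.5×10^3 CFU/ml, 35 °C for 46-50 h. Reported values are 50% inhibition versus controls, no-growth MIC, and killing MFC/MBC.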

[3] = tested on: C. glabrata ATCC 90030; test: Antifungal broth dilution assay against C. glabrata (modified CLSI); type: cell-based, Candida glabrata; settings: for C. glabrata IC50 / IC50: in vitro; for IC50: converted with molecular weight; for X more potent than Amphotericin B: molar IC50 ratio versus amphotericin B
Outline: as §1

[4] = tested on: S. mansoni newly transformed schistosomula (NTS); test: In vitro testing on Schistosoma mansoni newly transformed schistosomula (NTS), viability score; type: cell-based; settings: 72 h
Method: Assays were prepared according to the laboratory SOP for the lab of Dr. Jennifer Keiser (Swiss Tropical and Public Health Institute, Basel). Harvested S. mansoni cercariae (Liberian strain) obtained from infected Biomphalaria glabrata snails were mechanically transformed into newly transformed schistosomula (NTS) following standard procedures. Briefly, snails were placed under light in the morning to stimulate cercarial shedding. The cercarial suspension was collected, cooled for 30 minutes, and then vigorously pipetted (30×) and vortexed (3 minutes). The suspension was then placed in the incubator (37° C. and 5% CO2) for 30 minutes, and the vortexing and pipetting steps were repeated. The transformation was complete at this point, and the tails were separated from the heads by rinsing three times with cold HBSS. NTS were then incubated overnight in culture medium overnight and used the next day.
The original stock compounds (which were not already dissolved) were dissolved in dimethyl sulfoxide (DMSO) to a concentration of 10 mM. 100 NTS were placed in each well of a 96-well plate with culture medium, and the test compound for a final well volume of 250 μl. […] NTS incubated with no more than 1% DMSO served as control. NTS were kept in an incubator at 37° C. and 5% CO2 for up to 72 hours. After 72 hours, the condition of the NTS was microscopically evaluated using a scale from 3 (normal activity and no tegument alteration) to 0 (dead, completely granulated).

[5] = tested on: Plasmodium falciparum D6 clone (Sierra Leon, chloroquine-sensitive); test: In vitro antimalarial assay, chloroquine-sensitive D6 clone; type: cell-based; settings: D6 clone; for IC50: converted with molecular weight, read-out: P. falciparum D6 IC50; for X more potent than chloroquine: molar IC50 ratio versus chloroquine
Method: (§2) The compounds were assayed for in vitro antimalarial activity against the W2 clone and D6 clone of the pathogenic Plasmodium falciparum. The strains of P. falciparum were obtained from the Division of Experimental Therapeutics, Walter Reed Army Institute of Research, Washington D.C. Strains of Sierra Leon D6 and Indochina W2 are chloroquine-sensitive and chloroquine-resistant, respectively. The parasite was grown in type A human RBCs and, two strains subcultured daily with fresh medium and blood cells. On the day of the assay, a suspension of infected blood cells (2% parasitemia and 2% hematocrit) was prepared using type A human red blood cells. Assays were performed by standard 96-well flat-bottomed microplate methods and done in duplicate at different concentrations. IC50 values were obtained from the dose curves. Artemisinin and chloroquine were included in each assay as the drug controls, and DMSO was used as vehicle control. The whole protocol was developed based on the published method of Makler. The cytotoxicity assays were also performed in parallel against the Vero cells, and the selectivity index was measured. A selectivity index of >9 was considered to indicate a lead for further development of antimalarial drug.

[6] = tested on: Plasmodium falciparum W2 clone (Indochina, chloroquine-resistant); test: In vitro antimalarial assay, chloroquine-resistant W2 clone; type: cell-based; settings: W2 clone; for IC50: converted with molecular weight, read-out: P. falciparum W2 IC50; for X more potent than chloroquine: molar IC50 ratio versus chloroquine
Method: as §2

[7] = tested on: L. donovani promastigotes; test: Antileishmanial Alamar Blue assay on promastigotes; type: cell-based, Leishmania donovani; settings: for X more potent than Pentamidine: L. donovani, ratio of molar IC50 to Pentamidine; for L. donovani IC50 / IC50: promastigotes, 48 hours, Alamar Blue; for IC50: read-out: L. donavani IC50
Outline: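 Alamar Blue fluorescence (544/590 nm) quantified growth after 48 hours at 26° C of compound-treated promastigotes. Parasites were seeded at 5×10^5/mL in RPMI 1640 plus 10% FCS; drug range 50-3.1 μg/mL, and IC50 derived by plotting percent growth against test concentration.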

Row | Compound | X more potent than Amphotericin B [1] | C. neoformans IC50 [1] | IC50 [1] | X more potent than Amphotericin B [2] | C. krusei IC50 [2] | IC50 [2] | Effect at 72 h (%) ([4]; NTS S. mansoni, 33 μM) | P. falciparum D6 IC50 [5] | IC50 [5] | X more potent than chloroquine [5] | P. falciparum W2 IC50 [6] | IC50 [6] | X more potent than chloroquine [6] | X more potent than Pentamidine [7] | L. donovani IC50 [7] | IC50 [7] | Effect at 72 h (%) ([4]; NTS S. mansoni at 10 μM) | other results
1 | CC(=O)[O-].CC(=O)[O-].CN1CCCN2CCN(CCCN(Cc3ccc(CN4CCCN5CCN(C)CCCN(CC5)CC4)cc3)CC2)CC1.F[P-](F)(F)(F)(F)F.F[P-](F)(F)(F)(F)F.[Cu+2].[Cu+2] [TJH384A, [Cu2(p-CB-cyclams)(OAc)2](PF6)2] | 0.38 | 0.700 µg/mL | 626 nM | 0.25 | 6.760 µg/mL | 6050 nM | 5.41% | – | – | – | – | – | – | – | – | – | – | C. glabrata IC50 [3]: 14.590 µg/mL; IC50 [3]: 13000 nM; X more potent than Amphotericin B [3]: 0.11
2 | CC(=O)[O-].F[P-](F)(F)(F)(F)F.[Cu+2].c1ccc(CN2CCN3CCN(CC2)CCN(Cc2ccccc2)CC3)cc1 [RM58] | – | – | – | – | – | – | 5.41% | 0.0947 µg/mL | 147 nM | 0.25 | 0.2015 µg/mL | 312 nM | 2.18 | – | – | – | – | –
3 | [Mn(Bn1Me1-CB-Cyclam)Cl2] [NS11] | 0.02 | 5.038 µg/mL | 11000 nM | – | – | – | 5.41% | 0.6142 µg/mL | 1350 nM | 0.03 | 0.5300 µg/mL | 1160 nM | 0.58 | – | – | – | – | –
4 | CC(=O)[O-].CC(=O)[O-].CC(=O)[O-].CN1CCN2CCN(CC1)CCN(Cc1cc(CN3CCN4CCN(C)CCN(CC4)CC3)cc(CN3CCN4CCN(C)CCN(CC4)CC3)c1)CC2.F[P-](F)(F)(F)(F)F.F[P-](F)(F)(F)(F)F.F[P-](F)(F)(F)(F)F.F[P-](F)(F)(F)(F)F.F[P-](F)(F)(F)(F)F.F[P-](F)(F)(F)(F)F.[Co+3].[Co+3].[Co+3] [BNS20, [Co3(tris-CB-Cyclens)(OAc)3][PF6]6] | 0.47 | 1.000 µg/mL | 506 nM | – | 0.980 µg/mL | 496 nM | 18.02% | – | – | – | – | – | – | – | – | – | – | C. glabrata IC50 [3]: 4.720 µg/mL; IC50 [3]: 2390 nM; X more potent than Amphotericin B [3]: 0.59
5 | c1ccc(CN2CCCN3CCN(CCCN(Cc4ccccc4)CC3)CC2)cc1 [JGL45, Bn2Bcyclam] | – | – | – | – | – | – | 81.08% | 1.0894 µg/mL | 2680 nM | 0.01 | 0.1772 µg/mL | 436 nM | 1.56 | 0.55 | 3.94 µg/mL | 9690 nM | 44.83% | –
6 | CC(=O)[O-].CN1CCCN2CCN(CCCN(Cc3ccccc3)CC2)CC1.F[P-](F)(F)(F)(F)F.[Cu+2] [RM56A, [Cu(Bn1Me1Bcyclam)(OAc)]PF6] | – | – | – | – | – | – | 18.02% | 0.7145 µg/mL | 1200 nM | 0.03 | 0.6747 µg/mL | 1130 nM | 0.60 | 0.10 | 33.32 µg/mL | 55700 nM | – | –
7 | CC(=O)[O-].F[P-](F)(F)(F)(F)F.[Zn+2].c1ccc(CN2CCCN3CCN(CCCN(Cc4ccccc4)CC3)CC2)cc1 [RM41, [Zn(Bn2Bcyclam)(OAc)]PF6] | – | – | – | – | – | – | 100.00% | 0.2315 µg/mL | – | 0.11 | 0.4010 µg/mL | – | 1.14 | 0.38 | 9.51 µg/mL | – | 17.24% | –
8 | CC(=O)[O-].F[P-](F)(F)(F)(F)F.[Cu+2].c1ccc(CN2CCCN3CCN(CCCN(Cc4ccccc4)CC3)CC2)cc1 [RM37, [Cu(Bn2Bcyclam)(OAc)]PF6] | – | – | – | – | – | – | 100.00% | 0.2855 µg/mL | 424 nM | 0.09 | 0.5451 µg/mL | 809 nM | 0.84 | 0.58 | 6.17 µg/mL | 9150 nM | 24.14% | –
9 | CC(=O)[O-].CC(=O)[O-].CC(=O)[O-].F[P-](F)(F)(F)(F)F.F[P-](F)(F)(F)(F)F.F[P-](F)(F)(F)(F)F.[Co+2].[Co+2].[Co+2].c1c(CN2CCNCCN3CCN(CC3)CC2)cc(CN2CCNCCN3CCN(CC3)CC2)cc1CN1CCNCCN2CCN(CC2)CC1 [CDG021, [Co3(tris-SB-Cyclens)(OAc)3][PF6]3] | 0.45 | ≤ 0.800 µg/mL | 534 nM | 0.53 | 4.200 µg/mL | 2800 nM | 11.71% | – | – | – | – | – | – | – | – | – | – | times more potent than AMB [3]: 2.66; C. glabrata IC50 [3]: 0.800 µg/mL; IC50 [3]: 534 nM; X more potent than Amphotericin B [3]: 2.66
10 | [Cl-].[Cl-].[Fe+2].c1ccc(CN2CCCN3CCN(CCCN(Cc4ccccc4)CC3)CC2)cc1 [NS08, Fe(Bn2Bcyclam)Cl2] | – | – | – | – | – | – | 18.02% | 0.1726 µg/mL | 324 nM | 0.11 | 0.2271 µg/mL | 426 nM | 1.59 | 1.66 | 1.71 µg/mL | 3210 nM | 51.72% | –
11 | c1ccc(CN2CCN3CCN(CC2)CCN(Cc2ccccc2)CC3)cc1 [ANC14, Bn2Bcyclen] | – | – | – | – | – | – | 43.24% | 0.5110 µg/mL | 1350 nM | 0.03 | 0.7602 µg/mL | 2010 nM | 0.34 | 0.53 | 3.80 µg/mL | 10000 nM | – | –
12 | CN1CCN2CCN(CC1)CCN(Cc1cc(CN3CCN4CCN(C)CCN(CC4)CC3)cc(CN3CCN4CCN(C)CCN(CC4)CC3)c1)CC2 [BNS017, tris-CB-cyclens] | 2.56 | 0.070 µg/mL | 93.2 nM | 0.19 | 5.850 µg/mL | 7790 nM | 0.00% | – | – | – | – | – | – | 0.16 | 25.46 µg/mL | 33900 nM | – | –
13 | CC(=O)[O-].F[P-](F)(F)(F)(F)F.[Ni+2].c1ccc(CN2CCCN3CCN(CCCN(Cc4ccccc4)CC3)CC2)cc1 [TC09, [Ni(Bn2Bcyclam)(OAc)]PF6] | – | – | – | 0.22 | 4.520 µg/mL | 6750 nM | 43.24% | 0.552 µg/mL | 825 nM | 0.04 | 0.8876 µg/mL | 1330 nM | 0.51 | 0.55 | 6.51 µg/mL | 9730 nM | – | –

Source: patent publication US12139481B2, “Compositions comprising macrocycle derivatives incorporating bridged macrocycles and methods of producing and using same” (Southwestern Oklahoma State University, priority 2015, dated 2024)
